Columns and labels:
[1] = test system: SW620 colon cancer cell; assay: Cell cycle analysis (Experimental Example 1), SW620; assay type: cell-based, human; conditions: SW620, 1 μM, 48 hours, percentage of cells in G2/M
Method: (§1) Colon cancer cell of human SW620(ATCC) or HCT116 (ATCC) was transferred to T25 flask(culture 7.5 ml) by RPMI1640 (Gibco/BR) medium or DMEM medium (Gibco/BR) containing 10% FBS (fetal bovine serum), respectively. Thereafter the cell was incubated for 12 hours at 37° C. in incubator. After the cell was incubated for 12 hours, 7.5 μl of DMSO was added to a culture used as control group, for the final concentration to be 0.1%. In order to use in experiment, samples of various concentrations were prepared by dissolving the cinnamaldehyde derivatives of the present invention in DMSO. 7.5 μl of the prepared samples was added to a culture used as experimental group. Cell of control or experimental group was incubated for 48 hours.
(§2) For cell cycle analysis, incubated cell was removed from medium. Thereafter the incubated cell was separated from the flask by trypsin. Thus the cell was centrifuged at 300 g for 5 min. The cell was washed with phosphate buffer solution (PBS) to remove the residue medium from the cell. 3 ml of ethanol (70%) was added to the cell. The cell was fixed by being positioned at −20° C. for 12 hours. The fixed cell was centrifuged at 300 g for 3 min and washed with the cold PBS for two times to remove residual ethanol. The cell solution prepared by adding 500 μl of PBS to the cell was well mixed to produce the homogeneous state. 100 μg/ml RNase A 50 μl was added to the cell solution, thereafter the resulting cell solution was positioned at 37° C. for 30 min. The chromosomal DNA was stained by further adding 1 mg/ml propidium iodide (soluble in PBS) thereto.
(§3) Distribution of cell cycle of 20,000 stained cells were measured by using Becton-Dickinson FACS caliber (San Jose, Calif., USA).

[2] = test system: HCT116 colon cancer cell; assay: Cell cycle analysis (Experimental Example 1), HCT116; assay type: cell-based, human; conditions: HCT116, 1 μM, 48 hours, percentage of cells in G2/M
Method: as §1, §2, §3

[3] = test system: HCT116 colon cancer cell; assay: Growth inhibition of HCT116 colon cancer cell (GI50); assay type: cell-based, human; conditions: concentration at which growth of HCT116 colon cancer cell was inhibited to the 50%
Method: as §1
(§4) HCT116 GI50 (μM) and SW620 GI50 (μM) mean to be the concentrations at which growth of HCT116 and SW620 colon cancer cell was inhibited to the 50%, respectively.

[4] = test system: SW620 colon cancer cell; assay: Growth inhibition of SW620 colon cancer cell (GI50); assay type: cell-based, human; conditions: concentration at which growth of SW620 colon cancer cell was inhibited to the 50%
Method: as §1, §4

SMILES | G2/M at 1 μM(%) SW620 [1] [%] | G2/M at 1 μM(%) HCT116 [2] [%] | GI50 ([3]; Homo sapiens, HCT-116) [µM] | melting point [°C] | GI50 ([4]; Homo sapiens, SW-620) [µM] | GI50 [3] [µM] | GI50 [4] [µM]
O=CC(=C\c1ccccc1)/C(C=O)=C/c1ccccc1 [Compound 1, 2,3-bis-benzylidenesuccinaldehyde] | 45 | 42 | 8.39 | 150 to 151 | 1.52 |  | 
O=CC(=Cc1ccccc1F)C(C=O)=Cc1ccccc1F [Compound 2, 2,3-bis-(2-fluorobenzylidene)succinaldehyde] | 58 | 48 | 4.02 | 141 to 142 | 10.7 |  | 
O=CC(=Cc1ccccc1Cl)C(C=O)=Cc1ccccc1Cl [Compound 3, 2,3-bis-(2-chlorobenzylidene)succinaldehyde] | 47 | 40 | 0.91 | 177 to 178 | 0.91 |  | 
O=CC(=Cc1ccccc1Br)C(C=O)=Cc1ccccc1Br [Compound 4, 2,3-bis-(2-bromobenzylidene)succinaldehyde] | 36 | 38 | 1.05 | 194 to 195 | 2.14 |  | 
COc1ccccc1C=C(C=O)C(C=O)=Cc1ccccc1OC [Compound 5, 2,3-bis-(2-methoxybenzylidene)succinaldehyde] | 50 | 55 | 3.72 | 163 to 164 | 1.55 |  | 
O=CC(=Cc1cccc(Cl)c1)C(C=O)=Cc1cccc(Cl)c1 [Compound 6, 2,3-bis-(3-chlorobenzylidene)succinaldehyde] | 66 | 60 | 3.62 | 107 to 108 | 90.6 |  | 
COc1cc(C=C(C=O)C(C=O)=Cc2ccc(O)c(OC)c2)ccc1O [Compound 7, 2,3-bis-(4-hydroxy-3-methoxy-benzylidene)succinaldehyde] | 38 | 30 | 7.87 | 177 to 178 | 3.53 |  | 
COc1ccc(C=C(C=O)C(C=O)=Cc2ccc(OC)c(OC)c2)cc1OC [Compound 8, 2,3-bis-(3,4-dimethoxybenzylidene)succinaldehyde] | 75 | 71 | 5.49 | 149 to 150 | 10.5 |  | 
O=CC(=Cc1ccc(Cl)cc1)C(C=O)=Cc1ccc(Cl)cc1 [Compound 9, 2,3-bis-(4-chlorobenzylidene)succinaldehyde] | 67 | 63 | 3.62 | 172 to 173 | 24.2 |  | 
O=CC(=Cc1ccc(O)cc1)C(C=O)=Cc1ccc(O)cc1 [Compound 10, 2,3-bis-(4-hydroxy-benzylidene)succinaldehyde] | 65 | 61 | 1.36 | 244 to 246 | 1.02 |  | 
Cc1ccc(C=C(C=O)C(C=O)=Cc2ccc(C)cc2)cc1 [Compound 11, 2,3-bis-(4-methyl-benzylidene)succinaldehyde] | 44 | 40 | 1.03 | 177 to 178 | 5.17 |  | 
COc1ccc(C=C(C=O)C(C=O)=Cc2ccc(OC)cc2)cc1 [Compound 12, 2,3-bis-(4-methoxy-benzylidene)succinaldehyde] | 57 | 59 | 9.62 | 204 to 207 | 10.2 |  | 
CCCOc1ccccc1/C=C(C=O)/C(C=O)=C/c1ccccc1OCCC [Compound 13, 2,3-bis(2-propyloxy-benzylidene)succinaldehyde] | 62 | 65 | 5.28 | 109 to 110 | 2.11 |  | 
C=CCOc1ccccc1C=C(C=O)C(C=O)=Cc1ccccc1OCC=C [Compound 14, 2,3-bis-(2-allyloxy-benzylidene)succinaldehyde] | 76 | 72 | 5.28 | 117 to 118 | 2.64 |  | 
CC(C)Oc1ccccc1C=C(C=O)C(C=O)=Cc1ccccc1OC(C)C [Compound 15, 2,3-bis-(2-isopropyloxy-benzylidene)succinaldehyde] | 69 | 70 | 5.34 | 109 to 110 | 5.34 |  | 
O=CC(=Cc1ccccc1OCc1ccc(Cl)cc1)C(C=O)=Cc1ccccc1OCc1ccc(Cl)cc1 [Compound 17, 2,3-bis-(2-(4-chlorobenzyloxy)-benzylidene)succinaldehyde] | 76 | 71 | 0.84 | 186 to 187 | 0.54 |  | 
O=CC(=Cc1ccccc1OCc1ccc(Br)cc1)C(C=O)=Cc1ccccc1OCc1ccc(Br)cc1 [Compound 18, 2,3-bis-(2-(4-bromobenzyloxy)-benzylidene)succinaldehyde] | 70 | 75 | 2.63 | 210 to 211 | 4.64 |  | 
O=CC(=Cc1ccccc1OCc1ccc([N+](=O)[O-])cc1)C(C=O)=Cc1ccccc1OCc1ccc([N+](=O)[O-])cc1 [Compound 19, 2,3-bis-(2-(4-nitrobenzyloxy)-benzylidene)succinaldehyde] | 39 | 32 | 5.19 | 116 to 117 | 7.09 |  | 
CCCOc1cccc(/C=C(C=O)/C(C=O)=C/c2cccc(OCCC)c2)c1 [Compound 20, 2,3-bis-(3-propyloxy-benzylidene)succinaldehyde] | 76 | 72 | 2.74 | 93 to 94 | 6.74 |  | 
CCCCC(=O)Oc1ccc(C=C(C=O)C(C=O)=Cc2ccc(OC(=O)CCCC)c(OC)c2)cc1OC [Compound 26, 2,3-bis-(4-valeryloxy-3-methoxy-benzylidene)succinaldehyde] | 47 | 46 | 11.2 |  | 54 |  | 
CCCOc1ccc(/C=C(C=O)/C(C=O)=C/c2ccc(OCCC)cc2)cc1 [Compound 28, 2,3-bis-(4-propyloxybenzylidene)succinaldehyde] | 70 | 72 | 0.82 |  | 0.55 |  | 
CCCCC(=O)Oc1ccc(C=C(C=O)C(C=O)=Cc2ccc(OC(=O)CCCC)cc2)cc1 [Compound 30, 2,3-bis-(4-valeryoxy-benzylidene)succinaldehyde] | 65 | 63 |  |  |  | 21 | 65

Reference: patent US6949682B2, “Cinnamaldehyde derivatives inhibiting growth of tumor cell and regulating cell cycle, preparations and pharmaceutical compositions thereof” (Korea Research Institute of Bioscience and Biotechnology, priority 2003, dated 2005)
